Test results from patent US20180243297A1, “Amino pyrazine derivatives as phosphatidylinositol 3-kinase inhibitors” (Novartis AG, priority 2014, published 2018).
Like-named read-outs stand apart in the source and are kept apart here. Values belong to the compound of their own block, whether it stands above or below them.

Experiments:
[1] = molecular target: PI 3-kinase gamma (Homo sapiens, UniProt P48736); assay: TR-FRET Adapta assay, assay E; type: biochemical
Protocol: (§1) TR-FRET Adapta Assay for PI 3-Kinase Gamma (E), PI 3-Kinase Delta (F)
(§2) The TR-FRET Adapta™ Universal Kinase Assay Kit was purchased from lnvitrogen Corporation (Carlsbad/CA, USA) (Cat. No. PV5099).
(§3) PIK3CD substrate phosphatidylinositol (PI) was obtained from lnvitrogen (vesicules consisting of 2 mM phosphatidylinositol (PI) in 50 mM HEPES pH7.5; Cat. No. PV5371). PIK3CG substrate phosphatidylinositol-4,5-bisphosphate (PIP(4,5)2 was obtained from lnvitrogen (PIP2:PS large unilamellar vesicules consisting of 1 mM PIP2: 19 mM PS in 50 mM HEPES pH7.5, 3 mM MgCl2, 1 mM EGTA; Cat. No. PV5100).
(§4) The Adapta™ assay can be divided into two phases: a kinase reaction phase and an ADP detection phase. In the kinase reaction phase, all kinase reaction components are added to the well and the reaction is allowed to incubate for a set period of time specific for each kinase. […] In the presence of an inhibitor, the amount of ADP formed by the kinase reaction is reduced, and the resulting intact antibodytracer interaction maintains a high TR-FRET signal.
(§5) 50 nL of compound dilutions were dispensed onto white 384-well small volume polystyrene plate. […]
(§6) Data are analyzed using Excel fit software or Graphpad Prism. IC50 values were derived by fitting a sigmoidal dose-response curve to a plot of assay readout over inhibitor concentration. […]

[2] = molecular target: T1, PI 3-kinase gamma (U937 cells, MIP1α-stimulated AKT phosphorylation) (Homo sapiens, UniProt P48736); assay: Cellular U937 AKT assay (HTRF), assay K2; type: cell-based; conditions: HTRF format, read-out: Assay K2 PI3Kγ IC50
T1 construct: endogenous in cells; host or cells: U937 human monocyte cell line
T1 sequence (P48736 whole entry): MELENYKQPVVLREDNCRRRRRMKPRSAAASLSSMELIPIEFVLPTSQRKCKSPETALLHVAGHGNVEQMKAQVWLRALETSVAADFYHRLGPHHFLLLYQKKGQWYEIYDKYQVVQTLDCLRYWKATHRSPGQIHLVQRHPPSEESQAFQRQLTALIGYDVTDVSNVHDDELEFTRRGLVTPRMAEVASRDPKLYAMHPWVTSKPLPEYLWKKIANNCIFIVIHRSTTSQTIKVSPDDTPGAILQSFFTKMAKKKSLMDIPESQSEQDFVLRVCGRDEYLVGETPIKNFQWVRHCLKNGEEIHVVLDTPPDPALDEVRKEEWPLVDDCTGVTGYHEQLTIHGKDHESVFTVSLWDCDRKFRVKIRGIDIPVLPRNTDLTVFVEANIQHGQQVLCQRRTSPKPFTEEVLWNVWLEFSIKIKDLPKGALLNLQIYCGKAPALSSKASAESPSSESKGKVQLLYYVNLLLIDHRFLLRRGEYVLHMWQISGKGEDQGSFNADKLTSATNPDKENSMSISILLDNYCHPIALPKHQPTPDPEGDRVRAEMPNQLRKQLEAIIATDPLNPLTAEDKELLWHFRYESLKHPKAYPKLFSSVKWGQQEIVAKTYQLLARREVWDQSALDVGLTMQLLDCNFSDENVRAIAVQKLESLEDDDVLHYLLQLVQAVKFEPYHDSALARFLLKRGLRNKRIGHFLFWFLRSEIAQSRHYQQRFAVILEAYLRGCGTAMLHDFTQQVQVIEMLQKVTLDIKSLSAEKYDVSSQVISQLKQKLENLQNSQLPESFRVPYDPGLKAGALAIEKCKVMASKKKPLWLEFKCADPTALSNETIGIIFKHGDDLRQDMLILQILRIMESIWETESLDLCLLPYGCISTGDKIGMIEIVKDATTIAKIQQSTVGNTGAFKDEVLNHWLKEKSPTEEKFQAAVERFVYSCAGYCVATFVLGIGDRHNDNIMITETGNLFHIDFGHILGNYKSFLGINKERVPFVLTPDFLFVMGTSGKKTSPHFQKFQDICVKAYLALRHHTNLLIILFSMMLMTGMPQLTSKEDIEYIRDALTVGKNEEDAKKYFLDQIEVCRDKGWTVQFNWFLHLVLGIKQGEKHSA
Protocol: (§7) In assays K1 and K2, the compounds were tested for their ability to inhibit the production of phosphorylated AKT (Protein Kinase B) generated in a PI 3-kinase gamma isoform-dependent process in a U937 human cell line.
Cellular U937 AKT Assay for PI 3-Kinase Gamma (K2)
U937 cells are split every 3-4 days: 5×10^6 cells/flask (175 cm^2) in 40 ml.
Semi-automated preparation of cell lysates: Cells were resuspended in HBSS, seeded (200′000 cells/well/60 μl) into a 384-well plate and incubated in a humidified 37° C., 5% CO2 incubator for 1.5 hours. The compounds were diluted with HBSS and 40 μl were added to the starved cells (except for wells 24 I-P). […] The cells were then incubated for 30 minutes at 37° C. and 5% CO2. Stimulation occurred during 3 minutes by addition of 20 μl MIP1α (final 10 ng/ml, diluted in HBSS) in the incubator. Wells 24 A-H were only stimulated with HBSS.
The stimulation was then stopped by putting the cell plates on ice (filled with cold water). The cells were then centrifuged at 1200 rpm and 4° C. for 3 minutes.
80 μl of supernatant was removed. The cells were again centrifuged at 1200 rpm and 4° C. for 3 minutes. The supernatant was then removed by turning plates upside down and 30 μl of lysis buffer were added. The plate was incubated at room temperature for 30 minutes under shaking. 16 μl were then transferred to a ProxiPlate Plus 384-well. […]

[3] = molecular target: PI 3-kinase delta (Homo sapiens, UniProt O00329); assay: TR-FRET Adapta assay, assay F
Chain of PI 3-kinase delta (P27986 461-568 partner limits assumed, one chain of several): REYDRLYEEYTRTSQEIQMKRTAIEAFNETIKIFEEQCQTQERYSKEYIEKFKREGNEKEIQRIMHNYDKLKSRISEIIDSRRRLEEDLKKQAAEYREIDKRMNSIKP
Protocol: as §1, §2, §3, §4, §5, §6

[4] = molecular target: PI 3-kinase alpha (Homo sapiens, UniProt P42336); assay: Kinase Glo luminescent kinase assay (Kglo), assay A; type: biochemical; conditions: read-out: Assay A PI3Kα IC50
Chain of PI 3-kinase alpha (P42336 whole entry): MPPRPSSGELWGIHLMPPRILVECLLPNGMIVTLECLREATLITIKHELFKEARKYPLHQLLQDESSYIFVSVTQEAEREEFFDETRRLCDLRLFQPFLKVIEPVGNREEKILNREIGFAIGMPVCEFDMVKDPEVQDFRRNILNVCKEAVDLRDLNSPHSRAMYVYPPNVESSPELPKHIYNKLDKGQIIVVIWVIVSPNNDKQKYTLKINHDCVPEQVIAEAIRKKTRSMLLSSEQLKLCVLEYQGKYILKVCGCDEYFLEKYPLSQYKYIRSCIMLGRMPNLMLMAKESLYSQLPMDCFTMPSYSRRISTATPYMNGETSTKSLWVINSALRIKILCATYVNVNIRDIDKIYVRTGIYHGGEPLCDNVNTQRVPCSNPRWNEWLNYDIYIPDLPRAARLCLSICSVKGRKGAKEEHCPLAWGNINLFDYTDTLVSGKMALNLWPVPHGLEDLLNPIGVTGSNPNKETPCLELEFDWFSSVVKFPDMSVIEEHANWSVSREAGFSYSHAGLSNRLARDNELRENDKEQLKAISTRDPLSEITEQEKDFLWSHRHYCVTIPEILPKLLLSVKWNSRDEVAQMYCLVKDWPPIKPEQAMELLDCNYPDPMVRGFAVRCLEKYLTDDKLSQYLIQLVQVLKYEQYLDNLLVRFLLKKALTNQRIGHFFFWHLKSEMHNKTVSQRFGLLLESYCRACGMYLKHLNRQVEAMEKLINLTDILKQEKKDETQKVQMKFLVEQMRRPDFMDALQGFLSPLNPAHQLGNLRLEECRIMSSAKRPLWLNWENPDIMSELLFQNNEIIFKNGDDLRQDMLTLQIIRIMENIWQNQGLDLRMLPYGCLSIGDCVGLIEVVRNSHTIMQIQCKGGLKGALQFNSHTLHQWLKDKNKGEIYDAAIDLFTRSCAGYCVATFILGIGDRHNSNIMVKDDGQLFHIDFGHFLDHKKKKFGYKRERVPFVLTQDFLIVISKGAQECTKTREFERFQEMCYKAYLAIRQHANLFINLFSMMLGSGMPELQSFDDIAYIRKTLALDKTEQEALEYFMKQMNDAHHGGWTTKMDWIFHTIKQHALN
Chain of PI 3-kinase alpha (P27986 461-568 partner limits assumed): as the sequence (P27986 461-568 partner limits assumed, one chain of several) above
Protocol: (§8) Kinase Glo Luminescent Kinase Assay (Kglo) for Pb 3-Kinase Alpha (A), Pb 3-Kinase Beta (B), Vps34 (C), Pb 4-Kinase Beta (D)
(§9) The Kinase Glo Luminescent Kinase Assay (Promega, Madison/Wis., USA) is a homogeneous HTS method of measuring kinase activity by quantifying the amount of ATP remaining in solution following a kinase reaction.
(§10) L-α-phosphatidylinositol (PI), provided as 10 mg/ml solution in methanol, was transferred into a glass tube and dried under a nitrogen beam. It was then resuspended in 3% OctylGlucoside (1-0-n-octyl-beta-D-glucopyranoside) by vortexing and stored at 4° C. 5 μL of a mix of PI/OctylGlucoside with the PI 3-kinase alpha and PI 3-kinase beta subtypes, or Vps34 or PI 4-kinase beta were added. Kinase reactions were started by the addition of 5 μl of an ATP-mix containing in a final volume 10 μL 10 mM TRIS-HCl pH 7.5, 3 mM MgCl2, 50 mM NaCl, 0.05% CHAPS, 1 mM DTT and 1 μM ATP at room temperature.
(§11) All fits were performed with the program XLfit4 (ID Business Solutions, Guildford, UK).

[5] = molecular target: T1, PI 3-kinase gamma (U937 cells, MIP1α-stimulated AKT phosphorylation); assay: Cellular U937 AKT assay (MSD), assay K1; type: cell-based; conditions: MSD format, read-out: Assay K1 PI3Kγ IC50
Protocol: as §7
Cellular U937 AKT Assay for PI 3-Kinase Gamma (K1)
Cells are incubated at 37° C., 5% CO2.
Before beginning the cell manipulations described below, the MSD (Meso Scale Discovery) assay plate is blocked by addition of 150 μl/well blocking buffer supplied and incubated with shaking for a minimum of one hour at room temperature. All steps of the assay must be performed quickly, with accurately timed incubation periods and observing temperature controls where indicated.
falcon tube, counted and centrifuged for eight minutes at 300 g at room temperature. Supernatant is aspirated, the cell pellet resuspended and washed once in HBSS (Hank's Balanced Salt Solution) by centrifugation for eight minutes at 300 g at room temperature. […] Assay plates are incubated for 1.5 hours at 37° C., 5% CO2 to allow background AKT phosphorylation to reduce before the compound stimulation step.
Compound titrations are prepared in a fresh flat-bottomed, 96-well plate, by 10-fold serial dilution of 40 μM into HBSS 0.8% DMSO; pipette tips are replaced after each dilution is made. Compound concentrations at this stage are 4-times the final concentration required in the assay plate. Cells are stimulated with compound or HBSS 0.8% DMSO by direct transfer of 50 μl/well from the compound dilution plate. The assay plate containing compound-treated cells is then incubated for 30 minutes at 37° C. A standard plate layout is used for all experiments.
Compound-treated cells, in addition to positive control wells (“max MIP1α”), are stimulated with 50 μL per well of 40 ng/ml MIP1α (R&D Systems catalogue number 270-LD, lyophilized stock reconstituted to 50 μg/ml with PBS 0.1% BSA). Negative control wells (“min HBSS”), are stimulated with 50 μl/well of HBSS in the absence of MIP1α. Final compound concentrations are now diluted 4-fold giving a top concentration of 10 μM; where added, the final concentration of MIP1α is 10 ng/ml. Cells are incubated with MIP1α for 3 minutes, at 37° C., 5% CO2. After the three minute stimulation period, the assay plate is kept ice cold at all times. Assay plates are centrifuged for 2 minutes at 300 g, 4° C. and supernatant is removed by gently inverting, and then blotting the plate on tissue. Cells are then washed by gentle addition of 150 μL/well of ice cold HBSS and centrifugation at 300 g, for 5 minutes at 4° C. Supernatant is
aspirated and the plate blotted as described above. […] Plates are incubated on ice for 20 minutes before centrifugation at 841 g for 5 minutes, 4° C.
Block buffer is aspirated from the MSD plate, and the plate washed four times with 300 μl/well Tris wash buffer. 25 μL of cell lysate is then transferred from the assay plate to the washed MSD plate which is sealed and incubated at room temperature for one hour with shaking. […] The plate is washed four times with 300 μl per well of Tris wash buffer and 150 μl per well of Read buffer is added, taking care to avoid the introduction of bubbles. The plate is immediately read using an MSD SECTOR Imager 6000. Results are exported in Excel and the percentage of phosphorylated AKT is calculated using the equation: % Phosphoprotein=((2*Phospho signal)/(Phospho signal+Total signal))*100. Compound-mediated inhibition of AKT phosphorylation is analysed using Prizm V Graphpad software.

[6] = molecular target: Vps34 (Homo sapiens, UniProt Q8NEB9); assay: Kinase Glo luminescent kinase assay (Kglo), assay C; type: biochemical
Chain of Vps34 (Q8NEB9 whole entry, species assumed): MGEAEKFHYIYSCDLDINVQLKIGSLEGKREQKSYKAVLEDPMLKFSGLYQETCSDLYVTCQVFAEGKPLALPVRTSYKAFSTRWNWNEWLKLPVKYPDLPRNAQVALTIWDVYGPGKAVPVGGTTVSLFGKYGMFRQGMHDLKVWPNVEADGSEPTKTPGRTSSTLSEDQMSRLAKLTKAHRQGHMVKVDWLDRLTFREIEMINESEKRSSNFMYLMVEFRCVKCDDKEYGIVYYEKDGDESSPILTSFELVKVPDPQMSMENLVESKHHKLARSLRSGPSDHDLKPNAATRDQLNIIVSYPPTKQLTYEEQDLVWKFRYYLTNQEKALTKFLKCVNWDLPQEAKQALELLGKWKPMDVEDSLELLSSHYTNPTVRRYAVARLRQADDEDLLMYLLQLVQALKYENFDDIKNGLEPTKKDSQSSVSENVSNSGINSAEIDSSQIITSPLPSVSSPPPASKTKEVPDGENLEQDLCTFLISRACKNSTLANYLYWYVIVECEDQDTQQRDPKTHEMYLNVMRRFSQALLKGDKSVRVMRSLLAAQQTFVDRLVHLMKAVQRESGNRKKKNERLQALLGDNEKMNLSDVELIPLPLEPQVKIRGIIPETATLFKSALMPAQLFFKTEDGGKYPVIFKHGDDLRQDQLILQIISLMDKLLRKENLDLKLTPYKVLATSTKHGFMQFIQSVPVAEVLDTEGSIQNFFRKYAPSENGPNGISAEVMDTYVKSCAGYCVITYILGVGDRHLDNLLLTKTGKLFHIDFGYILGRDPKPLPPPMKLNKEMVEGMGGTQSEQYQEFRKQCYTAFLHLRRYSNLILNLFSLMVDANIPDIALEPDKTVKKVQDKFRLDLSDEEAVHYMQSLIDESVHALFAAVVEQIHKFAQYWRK
Protocol: as §8, §9, §10, §11

[7] = molecular target: mTOR (Homo sapiens, UniProt P42345); assay: Lanthascreen kinase binding assay, assay G
Protocol: Lanthascreen™ Kinase Binding Assay for mTOR (G)
Binding of an inhibitor to the kinase competes for binding with the tracer, resulting in a loss of FRET.
50 nL of compound dilutions were dispensed onto white 384-well small volume polystyrene plate.

[8] = molecular target: T2, PI 3-kinase delta (Rat-1_PI3Kdelta cells, Myr-HA-hp110 delta) (Homo sapiens, UniProt O00329); assay: Cellular p-Akt (S473) assay, Surefire format, assay J1; type: cell-based; conditions: non-asterisked data: version J1 (Surefire format); read-out: Assay J PI3Kδ IC50
T2 construct: expressed in transfected cells
T2 sequence (O00329 1-1044): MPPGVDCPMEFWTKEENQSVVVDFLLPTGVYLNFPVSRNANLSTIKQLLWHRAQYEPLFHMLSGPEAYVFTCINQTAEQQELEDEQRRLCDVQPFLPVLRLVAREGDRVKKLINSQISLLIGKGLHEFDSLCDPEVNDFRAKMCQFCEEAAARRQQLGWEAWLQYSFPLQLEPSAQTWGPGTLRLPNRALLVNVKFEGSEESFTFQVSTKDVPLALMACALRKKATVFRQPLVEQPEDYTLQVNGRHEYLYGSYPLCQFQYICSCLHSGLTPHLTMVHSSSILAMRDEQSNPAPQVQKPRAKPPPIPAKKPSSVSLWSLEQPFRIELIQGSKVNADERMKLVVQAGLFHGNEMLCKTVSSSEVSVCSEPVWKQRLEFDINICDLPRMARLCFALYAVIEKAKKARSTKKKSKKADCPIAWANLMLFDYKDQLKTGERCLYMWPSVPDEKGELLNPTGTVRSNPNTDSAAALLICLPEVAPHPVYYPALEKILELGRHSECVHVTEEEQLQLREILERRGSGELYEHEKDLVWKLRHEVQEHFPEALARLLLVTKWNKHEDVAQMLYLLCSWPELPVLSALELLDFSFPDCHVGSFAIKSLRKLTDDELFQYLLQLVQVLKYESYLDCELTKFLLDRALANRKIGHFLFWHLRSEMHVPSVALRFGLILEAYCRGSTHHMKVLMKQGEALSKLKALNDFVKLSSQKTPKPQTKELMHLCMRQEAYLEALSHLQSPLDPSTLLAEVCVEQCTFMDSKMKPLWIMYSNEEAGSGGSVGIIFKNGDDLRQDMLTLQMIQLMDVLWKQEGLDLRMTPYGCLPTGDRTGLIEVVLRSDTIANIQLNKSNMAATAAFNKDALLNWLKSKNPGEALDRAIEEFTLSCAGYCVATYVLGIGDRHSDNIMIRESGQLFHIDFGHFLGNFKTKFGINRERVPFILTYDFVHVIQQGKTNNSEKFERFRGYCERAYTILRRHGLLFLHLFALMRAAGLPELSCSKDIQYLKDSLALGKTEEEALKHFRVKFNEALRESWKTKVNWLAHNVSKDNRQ
Description: (§12) Cellular Assays for PI 3-Kinase Alpha (H1), Beta (I1) and Delta (J1): Surefire Format
(§13) AlphaScreen (Amplified Luminescent Proximity Homogeneous Assay, ALPHA, Perkin Elmer) is a non-radioactive bead-based proximity assay technology to study biomolecular interactions in a homogenous microtiter plate format. The brand name SureFire denotes AlphaScreen assays that are adapted to quantify the phosphorylation of endogenous cellular proteins in cell lysates, by using matched antibody pairs, which consist of an anti-phospho-kinase and an anti-kinase antibody. The assay allows characterization of kinase signaling in cells as well as measurement of kinase inhibitor effects.
(§14) Using Rat-1 cells stably expressing myr-HA-tagged versions of the human PI3Kdelta, PI3Kalpha, or PI3Kbeta p110 catalytic subunit isoforms, the assay was developed as a two-plate protocol in a 384-well format.
(§15) For compound testing, the cells were seeded at a density of 4000 (Rat-1_PI3Kdelta), 7500 (Rat-1_PI3Kalpha), or 6200 (Rat-1_PI3Kbeta) cells in 20 μl complete growth medium into cell culture treated 384-well plates and were grown at 37° C./5% CO2/90% humidity for 24 h. Shortly before compound transfer, the complete medium was removed, 30 μl assay buffer (DMEM high glucose, 1×MEM NEAA, 10 mM HEPES, 2 mM L-glutamine, 0.1% (w/v) BSA) was added and 10 μl of the compound predilutions were transferred to the cells.

[9] = molecular target: T3, PI 3-kinase beta (Rat-1_PI3Kbeta cells, Myr-HA-hp110 beta) (Homo sapiens, UniProt P42338); assay: Cellular p-Akt (S473) assay, Surefire format, assay I1; type: cell-based; conditions: non-asterisked data: version I1 (Surefire format); read-out: Assay I PI3Kβ IC50
T3 construct: expressed in transfected cells
T3 sequence (P42338 whole entry): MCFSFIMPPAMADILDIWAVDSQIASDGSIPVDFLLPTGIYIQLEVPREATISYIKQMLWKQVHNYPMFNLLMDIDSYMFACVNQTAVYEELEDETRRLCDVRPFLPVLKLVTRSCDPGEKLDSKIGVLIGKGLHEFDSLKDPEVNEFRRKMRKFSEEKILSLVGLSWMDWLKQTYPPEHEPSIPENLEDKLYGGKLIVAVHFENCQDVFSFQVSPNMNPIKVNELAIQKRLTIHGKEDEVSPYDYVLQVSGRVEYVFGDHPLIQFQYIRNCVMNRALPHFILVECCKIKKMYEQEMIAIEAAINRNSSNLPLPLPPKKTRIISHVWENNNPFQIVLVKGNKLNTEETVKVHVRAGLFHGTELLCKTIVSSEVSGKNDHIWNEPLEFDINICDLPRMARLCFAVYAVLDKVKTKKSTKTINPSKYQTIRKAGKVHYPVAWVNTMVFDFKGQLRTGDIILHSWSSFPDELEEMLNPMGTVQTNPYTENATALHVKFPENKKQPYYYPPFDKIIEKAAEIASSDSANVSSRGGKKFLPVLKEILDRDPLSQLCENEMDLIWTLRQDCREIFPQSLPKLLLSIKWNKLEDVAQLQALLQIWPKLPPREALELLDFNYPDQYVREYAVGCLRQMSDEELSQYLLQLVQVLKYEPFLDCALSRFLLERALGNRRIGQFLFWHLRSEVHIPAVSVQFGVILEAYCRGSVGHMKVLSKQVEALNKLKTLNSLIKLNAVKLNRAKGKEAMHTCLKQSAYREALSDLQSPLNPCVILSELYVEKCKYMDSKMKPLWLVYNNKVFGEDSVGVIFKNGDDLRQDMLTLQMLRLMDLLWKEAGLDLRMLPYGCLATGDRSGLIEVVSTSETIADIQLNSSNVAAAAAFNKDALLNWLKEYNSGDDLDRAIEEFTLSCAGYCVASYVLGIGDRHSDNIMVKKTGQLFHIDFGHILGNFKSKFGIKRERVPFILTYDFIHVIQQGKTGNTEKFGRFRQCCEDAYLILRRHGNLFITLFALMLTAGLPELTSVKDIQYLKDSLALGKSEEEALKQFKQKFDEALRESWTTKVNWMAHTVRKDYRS
Protocol: The assay allows characterization of kinase signaling in cells as well as measurement of kinase inhibitor effects.
as §14, §15, §11

[10] = molecular target: T4, PI 3-kinase alpha (Rat-1_PI3Kalpha cells, Myr-HA-hp110 alpha) (Homo sapiens, UniProt P42336); assay: Cellular p-Akt (S473) assay, Surefire format, assay H1; type: cell-based; conditions: non-asterisked data: version H1 (Surefire format); read-out: Assay H PI3Kα IC50
T4 construct: expressed in transfected cells
T4 sequence (P42336 whole entry): as the sequence (P42336 whole entry) above
Description: as §12, §13, §14, §15

[11] = tested on: IL-8-induced neutrophil shape change in human whole blood; assay: Whole blood neutrophil shape change assay, assay L; type: cell-based; conditions: read-out: Assay L WBSC IC50
Protocol: Whole Blood Neutrophil Shape Change Assay (L)
IL-8 was made up to 2 μM stocks in 0.1% bovine serum albumin/PBS and stored at −80° C. On the day IL-8 was diluted in PBS (phosphate buffered saline) 10 minutes before use. IL-8 was used at final concentration of 2 nM and a concentration range from 0.003 to 200 nM for the donor dose response curve.
Assay fixative solution was prepared fresh each day from 10× concentrated CellFlX™ solution diluted 1:10 in sterile distilled water and then 1:4 with PBS. Assay fixative solution was kept on ice prior to use.
A 10× lysis buffer was prepared in advance by dissolving 20.75 g NH4Cl and 2.5 g KHCO3 in 250 ml sterile H2O. This 10× lysis buffer was filtered under sterile conditions and stored for up to two weeks at 4° C. On the day a 1× lysis solution was prepared with sterile distilled H2O and kept on ice prior to use.
The test compounds were prepared as 10 mM stock solutions in 100% DMSO and were stored at 4° C. Once in use for an assay 10 mM stock compounds were thawed and stored at RT protected from light. Compound dilutions were prepared fresh on the day. The first series of dilutions in 100% DMSO were done first thing in the morning. Only once blood had been collected and arrived in laboratory was the next set of dilutions into PBS carried out (1:10 PBS, 10% DMSO). This limited the exposure of diluted compound to plastic and made sure the exposure timing was consistent between assays.
Compound dilutions in 100% DMSO were prepared as described previously. Human whole blood was collected in K2 EDTA Vacutainers. Once blood was in the laboratory, compound dilutions into PBS were carried out as described previously and depicted in Table 1.
The outer wells of the deep well assay plate were filled with 1200 μl of sterile distilled H2O in an effort to limit edge effects (rows A1-H1, A1-A12, A12-H12).
An IL-8 dose response was determined for each blood donor examined, to monitor the donor response to IL-8. […] In addition the assay window without DMSO was also assessed each day. […]

[12] = Microsomal clearance assay, assay M; type: in vitro ADME; conditions: intrinsic clearance in rat liver microsomes
Protocol: The experiments were performed in 96-well glass plates at 37° C. on an automated Tecan EVO platform. Test compounds at a concentration of 10 mM in pure DMSO were diluted 1:1000 in water to 10 μM. […] Reactions were initiated by the addition of 150 μL of a cofactor solution containing 2 mM NADPH.

Chain of PI 3-kinase gamma (P48736 whole entry): as the sequence (P48736 whole entry) above

Structure (SMILES): Cc1ccc(S(=O)(=O)NCC2COCCN2C)cc1-c1cnc(N)c(-c2cn(C)nc2C)n1 (single isomer, unassigned) [Example 128.3a, (R or S)-3-(5-Amino-6-(1,3-dimethyl-1H-pyrazol-4-yl)pyrazin-2-yl)-4-methyl-N-((4-methylmorpholin-3-yl)methyl)benzenesulfonamide]
IC50 ([1]; TR-FRET Adapta assay, read-out: Assay E PI3Kγ IC50): 27 nM | IC50 [2]: 241 nM | IC50 [3]: 570 nM | IC50 [4]: 230 nM

IC50 [5]: 411 nM
Structure (SMILES): Cc1ccc(S(=O)(=O)NCC2CCC(C)(C)O2)cc1-c1cnc(N)c(-n2cncn2)n1 (stereo in doubt) [Example 127.40, (R)-3-(5-amino-6-(1H-1,2,4-triazol-1-yl)pyrazin-2-yl)-N-((5,5-dimethyltetrahydrofuran-2-yl)methyl)-4-methylbenzenesulfonamide]

IC50 [6]: 9400 nM
Structure (SMILES): Cc1ccc(S(=O)(=O)NCC(C)(C)O)cc1-c1cnc(N)c(-c2nn(C)nc2C)n1 [Example 19, 3-[5-Amino-6-(2,5-dimethyl-2H-[1,2,3]triazol-4-yl)-pyrazin-2-yl]-N-(2-hydroxy-2-methyl-propyl)-4-methyl-benzenesulfonamide]

IC50 [6]: 9400 nM
Structure (SMILES): Cc1ncc(-c2nc(-c3cc(S(=O)(=O)NCC4(CO)CCOCC4)ccc3C)cnc2N)s1 [Example 45.9, 3-(5-Amino-6-(2-methylthiazol-5-yl)pyrazin-2-yl)-N-((4-(hydroxymethyl)tetrahydro-2H-pyran-4-yl)methyl)-4-methylbenzenesulfonamide]

IC50 [7]: 9100 nM | IC50 [6]: 9100 nM
Structure (SMILES): Cc1cc(-c2nc(-c3cc(S(=O)(=O)NCC(C)(C)O)ccc3C)cnc2N)on1 [Example 88, 3-(5-Amino-6-(3-methylisoxazol-5-yl)pyrazin-2-yl)-N-(2-hydroxy-2-methylpropyl)-4-methylbenzenesulfonamide]

IC50 [5]: 172 nM | IC50 [8]: 1040 nM | IC50 [9]: 2590 nM | IC50 [10]: 630 nM
Structure (SMILES): Cc1ccc(S(=O)(=O)NCCC(C)(C)O)cc1-c1cnc(N)c(-c2ccnc(F)c2)n1 [Example 119.10, 3-(5-amino-6-(2-fluoropyridin-4-yl)pyrazin-2-yl)-N-(3-hydroxy-3-methylbutyl)-4-methylbenzenesulfonamide]

IC50 [8]: 7030 nM | IC50 [9]: 4860 nM | IC50 [10]: 4950 nM
Structure (SMILES): Cc1ccc(S(=O)(=O)NCCC(C)(C)O)cc1-c1cnc(N)c(-c2cncnc2)n1 [Example 119.20, 3-(5-amino-6-(pyrimidin-5-yl)pyrazin-2-yl)-N-(3-hydroxy-3-methylbutyl)-4-methylbenzenesulfonamide]

IC50 [5]: 42 nM | IC50 [8]: 630 nM | IC50 [9]: 6990 nM | IC50 [11]: 1140 nM | Assay M RLM CI(int) [12]: 77 µL/min/mg | IC50 [10]: 690 nM
Structure (SMILES): Cc1nc(-c2nc(-c3cc(S(=O)(=O)NCCC(C)(C)O)ccc3C)cnc2N)cs1 [Example 119.30, 3-(5-amino-6-(2-methylthiazol-4-yl)pyrazin-2-yl)-N-(3-hydroxy-3-methylbutyl)-4-methylbenzenesulfonamide]

IC50 [8]: 1040 nM | IC50 [9]: 8160 nM | IC50 [2]: 47 nM | Assay M RLM CI(int) [12]: 56 µL/min/mg | IC50 [10]: 1100 nM
Structure (SMILES): Cc1ncc(-c2nc(-c3cc(S(=O)(=O)NCCC(C)(C)O)ccc3C)cnc2N)o1 [Example 119.40, 3-(5-amino-6-(2-methyloxazol-5-yl)pyrazin-2-yl)-N-(3-hydroxy-3-methylbutyl)-4-methylbenzenesulfonamide]

IC50 [5]: 850 nM
Structure (SMILES): Cc1ccc(S(=O)(=O)N[C@@H]2CCOC2)cc1-c1cnc(N)c(-n2cncn2)n1 [Example 127.20, (R)-3-(5-amino-6-(1H-1,2,4-triazol-1-yl)pyrazin-2-yl)-4-methyl-N-(tetrahydrofuran-3-yl)benzenesulfonamide]

IC50 ([7]; Lanthascreen kinase binding assay): 9100 nM
Structure (SMILES): Cc1ccc(S(=O)(=O)NC[C@](C)(O)C(F)(F)F)cc1-c1cnc(N)c(-n2cncn2)n1 [Example 127.23, (S)-3-(5-amino-6-(1H-1,2,4-triazol-1-yl)pyrazin-2-yl)-4-methyl-N-(3,3,3-trifluoro-2-hydroxy-2-methylpropyl)benzenesulfonamide]

IC50 [5]: 179 nM | IC50 [11]: 1070 nM
Structure (SMILES): Cc1ccc(S(=O)(=O)NCC2(CO)CCOCC2)cc1-c1cnc(N)c(-n2cncn2)n1 [Example 127.50]

Assay M RLM CI(int) [12]: 20 µL/min/mg
Structure (SMILES): Cc1ccc(S(=O)(=O)N[C@@H]2CNC[C@H]2O)cc1-c1cnc(N)c(-n2cncn2)n1 [Example 127.60]

IC50 [11]: 1610 nM | Assay M RLM CI(int) [12]: 78 µL/min/mg
Structure (SMILES): Cc1cc(-c2nc(-c3cc(S(=O)(=O)NC4CCOCC4)ccc3C)cnc2N)ccn1 [Example 129.10]

IC50 [10]: 3000 nM
Structure (SMILES): Cc1cc(-c2nc(-c3cc(S(=O)(=O)NCCC(C)(O)C(F)(F)F)ccc3C)cnc2N)ccn1 (stereo not drawn) [Example 129.13]

activity in assay E (PI 3-kinase gamma) ([1]; result in words): not shown any activity
Structure (SMILES): Cc1ccc(S(=O)(=O)NCCC(C)(C)O)cc1-c1cnc(N)c(-c2cccnc2OC(C)C)n1 [Reference example 119.12, 3-(5-amino-6-(2-isopropoxypyridin-3-yl)pyrazin-2-yl)-N-(3-hydroxy-3-methylbutyl)-4-methylbenzenesulfonamide]
